These results are taken from patent publication US6436448B1, “Method for the treatment of lymphedema using guaifenesin” (Sky BioHealth Solutions, Inc., priority 2001, dated 2002).

The structures appear in SMILES notation.

The conditions of assay [1]: herbal medicines, background statement; cited from earlier work.
A short description of assay [2]: Inventor's clinical observation of patients with lymphedema / fluid accumulation treated orally. The class given is in vivo. From the text:
The inventor disagrees with the basic assumption and hypothesis on the inner working of guaifenesin. The inventor believes that guaifenesin's activity is its ability to break down undigested protein, and antigen-antibody complexed protein within the tissues and lymphatic nodes and vessels to reduce fluid accumulation and therefore reduce lymphedema. Guaifenesin is an expectorate and it thins out proteinaceous secretions from our lungs by directly and/or indirectly through stimulating macrophages to breaking the proteins into its amino acids components. The inventor believes that guaifenesin break down the proteins within the blood stream, tissues, and the lymphatic system. By maintaining a high level of guaifenesin within the blood stream, the “foreign” proteins within the tissue, antigen-antibody protein complexes within the lymph nodes will be broken down allowing the broken down amino acid particles to diffuse across the tissue into the lymphatic drainage. With this fluid switch from the lymphatic to the systemic circulation diuresis ensues without affecting the potassium metabolism within the kidney. The inventor has also observed lymphedema that occurs in non-fibromyalgia patients that responds well to guaifenesin therapy resulting in reduction of the swelling. […] These observations confirm the hypothesis that guaifenesin works on the “foreign” protein or antigen-antibodies protein complexes within the tissues and lymphatic system. With different size “foreign” protein and antigen-antibody protein complexes, guaifenesin's action on these proteins in various part of the body will proceed with different rate resulting in different rate of swelling reduction in different part of the bodies. Many of these patients, however, are diagnosed by a physician to have a cardiogenic etiology of edema and are typically treated with diuretics of various types. Cardiogenic edema should respond to a diuretic within […]. The inventor has observed patients being on diuretics for as long as a year with no results on the lymphedema. In testing this hypothesis, the inventor has used guaifenesin on over several hundred patients in varying dosages. […] Guaifenesin is also available in sustained-release version. The long-acting version is typically available at 600 mg and is designed to be taken two or three times a day. […] Other combinations of various dosage for ms may be used with various patients to improve results. […] While the inventor has only administered guaifenesin to patients orally, guaifenesin and its analogs can be formulated using known methods to prepare pharmaceutically useful compositions by combining guaifenesin with a pharmaceutically acceptable carriers and adapted to be administered by injection, transdermally, transmucosally or by any other means of drug delivery vehicle. Guafenesin may also be administered to a patient in a patch form or in a cream, ointment, or in a nasal or lung spray, or in a suppository.

With `O=c1ccc2ccccc2o1` [coumarin], the swelling of lymphedema result in assay [1] is “decrease some of the swelling associated with lymphedema”.

In the case of `COc1ccccc1OCC(O)CO` (stereo not drawn) [guaifenesin], the “results with combination of short acting and long acting versions” value in assay [2] (combination of short acting and long acting versions) is given as “improves the results”. Also, in assay [2] (fibromyalgia patients on guaifenesin), the “painful and swollen lymph nodes” value is “reduction of the painful and swollen lymph nodes”. Besides, the “results with long-acting (sustained-release) version alone” value in assay [2] (long-acting version, typically 600 mg two or three times a day) was “may not work well in some patients”. For the same compound, the “response of lymphedema (reduction of the swelling)” value in assay [2] (non-fibromyalgia patients, guaifenesin therapy) is recorded as “responds well”. In assay [2] (over several hundred patients, oral, about 600 mg to about 4000 mg per day), the accumulated fluid result is “reduction of accumulated fluid”.
